Test results as given in patent US20220105188A1, “TARGET PROTEIN EED DEGRADATION-INDUCING DEGRADUCER, PREPARATION METHOD THEREOF, AND PHARMACEUTICAL COMPOSITION FOR PREVENTING OR TREATING DISEASES RELATED TO EED, EZH2, OR PRC2, COMPRISING SAME AS ACTIVE INGREDIENT” (KOREA RESEARCH INSTITUTE OF CHEMICAL TECHNOLOGY, priority 2019, published 2022).

Each compound was assayed against T1, EED (Homo sapiens, UniProt O75530) (assay: EED Proteolytic Activity Evaluation 2 (western blot, Hela cells)). Conditions: 1 nM, 10 nM, 100 nM and 1000 nM, 20 hours of treatment.
T1 construct: 2×10^5 Hela cells were injected into a 12-well plate; endogenous in cells; host or cells: HeLa
T1 sequence (O75530 whole entry): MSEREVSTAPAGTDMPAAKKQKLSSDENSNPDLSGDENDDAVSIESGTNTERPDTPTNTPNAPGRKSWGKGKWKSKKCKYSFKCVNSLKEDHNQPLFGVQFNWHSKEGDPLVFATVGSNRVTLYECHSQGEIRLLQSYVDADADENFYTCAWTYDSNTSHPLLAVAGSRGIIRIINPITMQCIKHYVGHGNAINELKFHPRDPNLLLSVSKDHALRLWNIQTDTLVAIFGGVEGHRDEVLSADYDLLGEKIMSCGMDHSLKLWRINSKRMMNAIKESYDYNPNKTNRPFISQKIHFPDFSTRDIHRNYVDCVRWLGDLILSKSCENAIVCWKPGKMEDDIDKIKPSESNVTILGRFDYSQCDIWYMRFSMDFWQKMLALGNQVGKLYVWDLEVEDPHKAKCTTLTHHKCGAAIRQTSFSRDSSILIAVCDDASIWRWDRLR
Format: cell-based
Description: [Experiment 2] EED Proteolytic Activity Evaluation 2
In order to evaluate the EED proteolytic activity of the compound according to the present invention, an experiment was conducted as follows.
Specifically, 2×10^5 Hela cells were injected into a 12-well plate, and after 8 hours of stabilization, each well was treated with the example compounds to have final concentrations of 1 nM, 10 nM, 100 nM, and 1000 nM. One well was treated with the volume of DMSO contained in the sample corresponding to the highest concentration in the experimental group. After 20 hours of treatment, the cells were collected and lysed using 80 μl of SDS Lysis buffer (50 mM Tris pH8.0, 1% SDS, 1 mM EDTA, 0.5 mM PMSF, and protease inhibitor cocktail) and then sonication (30 sec on/59 sec off), 5 cycles) to prepare a cell lysate, followed by protein quantification through BCA, followed by Western blot, and the results are shown in Table 3. (Maximum EED degradation rate: A: >50%, B: 25-50%, C: <25%)

Row | SMILES | EED degradation rate (Maximum EED degradation rate)
1 | Cc1cccc(F)c1CN1C[C@H](c2ccc(N3CCN(C(=O)CCCNc4ccc5c(c4)C(=O)N(C4CCC(=O)NC4=O)C5=O)CC3)cc2)[C@@H](N(C)C)C1 (stereo partly drawn) [Example 124, 5-((4-(4-(4-((3S,4R)-4-(dimethylamino)-1-(2-fluoro-6-methylbenzyl)pyrrolidin-3-yl)phenyl)piperazin-1-yl)-4-oxobutyl)amino)-2-(2,6-dioxopiperidin-3-yl)isoindolin-1,3-dione] | B (B: 25-50%)
2 | Cc1cccc(F)c1CN1C[C@H](c2ccc(N3CCN(CCOCCOCCOCCNC(=O)CNc4ccc5c(c4)C(=O)N(C4CCC(=O)NC4=O)C5=O)CC3)cc2)[C@@H](N(C)C)C1 (stereo partly drawn) [Example 135, N-(2-(2-(2-(2-(4-(4-((3S,4R)-4-(dimethylamino)-1-(2-fluoro-6-methylbenzyl)pyrrolidin-3-yl)phenyl)piperazin-1-yl)ethoxy)ethoxy)ethoxy)ethyl)-2-((2-(2,6-dioxopiperidin-3-yl)-1,3-dioxoisoindolin-5-yl)amino)acetamide] | B (B: 25-50%)
3 | Cc1cccc(F)c1CN1C[C@H](c2ccc(N3CCN(CC4CCN(c5ccc6c(c5)C(=O)N(C5CCC(=O)NC5=O)C6=O)CC4)CC3)cc2)[C@@H](N(C)C)C1 (stereo partly drawn) [Example 131, 5-(4-((4-(4-((3S,4R)-4-(dimethylamino)-1-(2-fluoro-6-methylbenzyl)pyrrolidin-3-yl)phenyl)piperazin-1-yl)methyl)piperidin-1-yl)-2-(2,6-dioxopiperidin-3-yl)isoindolin-1,3-dione] | A (A: >50%)
4 | O=C(CNc1ccc2nnn(C3CCC(=O)NC3=O)c(=O)c2c1)NCCOCCOCCN1CCC(n2cc(-c3cnc(NCc4ccco4)n4cnnc34)cn2)CC1 (stereo not drawn) [Example 130, 2-((3-(2,6-dioxopiperidin-3-yl)-4-oxo-3,4-dihydrobenzo[d][1,2,3]triazin-6-yl)amino)-N-(2-(2-(2-(4-(4-(5-((furan-2-ylmethyl)amino)-[1,2,4]triazolo[4,3-c]pyrimidin-8-yl)-1H-pyrazol-1-yl)piperidin-1-yl)ethoxy)ethoxy)ethyl)acetamide] | C (C: <25%)
5 | O=C1CCC(N2C(=O)c3ccc(NCC(=O)N4CCC(CN5CCC(n6cc(-c7cnc(NCc8ccco8)n8cnnc78)cn6)CC5)CC4)cc3C2=O)C(=O)N1 (stereo not drawn) [Example 127, 2-(2,6-dioxopiperidin-3-yl)-5-((2-(4-((4-(4-(5-((furan-2-ylmethyl)amino)-[1,2,4]triazolo[4,3-c]pyrimidin-8-yl)-1H-pyrazol-1-yl)piperidin-1-yl)methyl)piperidin-1-yl)-2-oxoethyl)amino)isoindolin-1,3-dione] | C (C: <25%)
6 | Cc1cccc(F)c1CN1C[C@H](c2ccc(N3CCN(CCC4CCN(c5ccc6c(c5)C(=O)N(C5CCC(=O)NC5=O)C6=O)CC4)CC3)cc2)[C@@H](N(C)C)C1 (stereo partly drawn) [Example 154, 5-(4-(2-(4-(4-((3S,4R)-4-(dimethylamino)-1-(2-fluoro-6-methylbenzyl)pyrrolidin-3-yl)phenyl)piperazin-1-yl)ethyl)piperidin-1-yl)-2-(2,6-dioxopiperidin-3-yl)isoindolin-1,3-dione] | A (A: >50%)
7 | Cc1cccc(F)c1CN1C[C@H](c2ccc(N3CCN(C(=O)CCCCCCCNc4ccc5c(c4)C(=O)N(C4CCC(=O)NC4=O)C5=O)CC3)cc2)[C@@H](N(C)C)C1 (stereo partly drawn) [Example 126, 5-((8-(4-(4-((3S,4R)-4-(dimethylamino)-1-(2-fluoro-6-methylbenzyl)pyrrolidin-3-yl)phenyl)piperazin-1-yl)-8-oxooctyl)amino)-2-(2,6-dioxopiperidin-3-yl)isoindolin-1,3-dione] | B (B: 25-50%)

Results, then the compound that gave them:

Row | EED degradation rate (Maximum EED degradation rate) | SMILES
8 | B (B: 25-50%) | Cc1cccc(F)c1CN1C[C@H](c2ccc(N3CCN(C(=O)CCC4CCN(c5cccc6c5C(=O)N(C5CCC(=O)NC5=O)C6=O)CC4)CC3)cc2)[C@@H](N(C)C)C1 (stereo partly drawn) [Example 141, 4-(4-(3-(4-(4-((3S,4R)-4-(dimethylamino)-1-(2-fluoro-6-methylbenzyl)pyrrolidin-3-yl)phenyl)piperazin-1-yl)-3-oxopropyl)piperidin-1-yl)-2-(2,6-dioxopiperidin-3-yl)isoindolin-1,3-dione]
9 | A (A: >50%) | Cc1cccc(F)c1CN1C[C@H](c2ccc(N3CCN(CCC4CCN(C(=O)CNc5cccc6c5C(=O)N(C5CCC(=O)NC5=O)C6=O)CC4)CC3)cc2)[C@@H](N(C)C)C1 (stereo partly drawn) [Example 152, 4-((2-(4-(2-(4-(4-((3S,4R)-4-(dimethylamino)-1-(2-fluoro-6-methylbenzyl)pyrrolidin-3-yl)phenyl)piperazin-1-yl)ethyl)piperidin-1-yl)-2-oxoethyl)amino)-2-(2,6-dioxopiperidin-3-yl)isoindolin-1,3-dione]
10 | A (A: >50%) | Cc1cccc(F)c1CN1C[C@H](c2ccc(N3CCN(C(=O)CC4CCN(C(=O)COc5cccc6c5C(=O)N(C5CCC(=O)NC5=O)C6=O)CC4)CC3)cc2)[C@@H](N(C)C)C1 (stereo partly drawn) [Example 143, 4-(2-(4-(2-(4-(4-((3S,4R)-4-(dimethylamino)-1-(2-fluoro-6-methylbenzyl)pyrrolidin-3-yl)phenyl)piperazin-1-yl)-2-oxoethyl)piperidin-1-yl)-2-oxoethoxy)-2-(2,6-dioxopiperidin-3-yl)isoindolin-1,3-dione]
11 | A (A: >50%) | Cc1cccc(F)c1CN1C[C@H](c2ccc(N3CCN(C(=O)CCC4CCN(C(=O)COc5cccc6c5C(=O)N(C5CCC(=O)NC5=O)C6=O)CC4)CC3)cc2)[C@@H](N(C)C)C1 (stereo partly drawn) [Example 148, 4-(2-(4-(3-(4-(4-((3S,4R)-4-(dimethylamino)-1-(2-fluoro-6-methylbenzyl)pyrrolidin-3-yl)phenyl)piperazin-1-yl)-3-oxopropyl)piperidin-1-yl)-2-oxoethoxy)-2-(2,6-dioxopiperidin-3-yl)isoindolin-1,3-dione]
12 | A (A: >50%) | Cc1cccc(F)c1CN1C[C@H](c2ccc(N3CCN(C(=O)CC4CCN(c5ccc6c(c5)C(=O)N(C5CCC(=O)NC5=O)C6=O)CC4)CC3)cc2)[C@@H](N(C)C)C1 (stereo partly drawn) [Example 132, 5-(4-(2-(4-(4-((3S,4R)-4-(dimethylamino)-1-(2-fluoro-6-methylbenzyl)pyrrolidin-3-yl)phenyl)piperazin-1-yl)-2-oxoethyl)piperidin-1-yl)-2-(2,6-dioxopiperidin-3-yl)isoindolin-1,3-dione]
13 | A (A: >50%) | Cc1cccc(F)c1CN1C[C@H](c2ccc(N3CCN(C(=O)CC4CCN(C(=O)CNc5ccc6c(c5)C(=O)N(C5CCC(=O)NC5=O)C6=O)CC4)CC3)cc2)[C@@H](N(C)C)C1 (stereo partly drawn) [Example 146, 5-((2-(4-(2-(4-(4-((3S,4R)-4-(dimethylamino)-1-(2-fluoro-6-methylbenzyl)pyrrolidin-3-yl)phenyl)piperazin-1-yl)-2-oxoethyl)piperidin-1-yl)-2-oxoethyl)amino)-2-(2,6-dioxopiperidin-3-yl)isoindolin-1,3-dione]
14 | A (A: >50%) | Cc1cccc(F)c1CN1C[C@H](c2ccc(N3CCN(CCC4CCN(C(=O)CNc5ccc6c(c5)C(=O)N(C5CCC(=O)NC5=O)C6=O)CC4)CC3)cc2)[C@@H](N(C)C)C1 (stereo partly drawn) [Example 136, 5-((2-(4-(2-(4-(4-((3S,4R)-4-(dimethylamino)-1-(2-fluoro-6-methylbenzyl)pyrrolidin-3-yl)phenyl)piperazin-1-yl)ethyl)piperidin-1-yl)-2-oxoethyl)amino)-2-(2,6-dioxopiperidin-3-yl)isoindolin-1,3-dione]
15 | A (A: >50%) | Cc1cccc(F)c1CN1C[C@H](c2ccc(N3CCN(CCC4CCN(c5cccc6c5C(=O)N(C5CCC(=O)NC5=O)C6=O)CC4)CC3)cc2)[C@@H](N(C)C)C1 (stereo partly drawn) [Example 153, 4-(4-(2-(4-(4-((3S,4R)-4-(dimethylamino)-1-(2-fluoro-6-methylbenzyl)pyrrolidin-3-yl)phenyl)piperazin-1-yl)ethyl)piperidin-1-yl)-2-(2,6-dioxopiperidin-3-yl)isoindolin-1,3-dione]
16 | A (A: >50%) | Cc1cccc(F)c1CN1C[C@H](c2ccc(N3CCN(C(=O)CCC4CCN(c5ccc6c(c5)C(=O)N(C5CCC(=O)NC5=O)C6=O)CC4)CC3)cc2)[C@H](N(C)C)C1 (stereo partly drawn) [Example 133, 5-(4-(3-(4-(4-((3S,4S)-4-(dimethylamino)-1-(2-fluoro-6-methylbenzyl)pyrrolidin-3-yl)phenyl)piperazin-1-yl)-3-oxopropyl)piperidin-1-yl)-2-(2,6-dioxopiperidin-3-yl)isoindolin-1,3-dione]
17 | C (C: <25%) | Cc1cccc(F)c1CN1C[C@H](c2ccc(N3CCN(CC4CCN(c5cccc6c5C(=O)N(C5CCC(=O)NC5=O)C6=O)CC4)CC3)cc2)[C@@H](N(C)C)C1 (stereo partly drawn) [Example 139, 4-(4-((4-(4-((3S,4R)-4-(dimethylamino)-1-(2-fluoro-6-methylbenzyl)pyrrolidin-3-yl)phenyl)piperazin-1-yl)methyl)piperidin-1-yl)-2-(2,6-dioxopiperidin-3-yl)isoindolin-1,3-dione]
18 | C (C: <25%) | Cc1cccc(F)c1CN1C[C@H](c2ccc(N3CCN(C(=O)CC4CCN(c5cccc6c5C(=O)N(C5CCC(=O)NC5=O)C6=O)CC4)CC3)cc2)[C@@H](N(C)C)C1 (stereo partly drawn) [Example 142, 4-(4-(2-(4-(4-((3S,4R)-4-(dimethylamino)-1-(2-fluoro-6-methylbenzyl)pyrrolidin-3-yl)phenyl)piperazin-1-yl)-2-oxoethyl)piperidin-1-yl)-2-(2,6-dioxopiperidin-3-yl)isoindolin-1,3-dione]
